The record followed here is article PMC10907603, “MFSD7c functions as a transporter of choline at the blood–brain barrier” (Cell Research, 2024).

Where a chain is given by its changes, count along the chain named. In names and notes the source's numbering stands.

Holding throughout (test): [3H]choline uptake in transfected HEK293 cells
Holding throughout (assay type): cell-based

In data set [1] the target is T1, MeMfsd7c (Oryzias latipes, UniProt H2LZ31).
T1 construct: gene flvcr2b
T1 sequence (H2LZ31 1-532): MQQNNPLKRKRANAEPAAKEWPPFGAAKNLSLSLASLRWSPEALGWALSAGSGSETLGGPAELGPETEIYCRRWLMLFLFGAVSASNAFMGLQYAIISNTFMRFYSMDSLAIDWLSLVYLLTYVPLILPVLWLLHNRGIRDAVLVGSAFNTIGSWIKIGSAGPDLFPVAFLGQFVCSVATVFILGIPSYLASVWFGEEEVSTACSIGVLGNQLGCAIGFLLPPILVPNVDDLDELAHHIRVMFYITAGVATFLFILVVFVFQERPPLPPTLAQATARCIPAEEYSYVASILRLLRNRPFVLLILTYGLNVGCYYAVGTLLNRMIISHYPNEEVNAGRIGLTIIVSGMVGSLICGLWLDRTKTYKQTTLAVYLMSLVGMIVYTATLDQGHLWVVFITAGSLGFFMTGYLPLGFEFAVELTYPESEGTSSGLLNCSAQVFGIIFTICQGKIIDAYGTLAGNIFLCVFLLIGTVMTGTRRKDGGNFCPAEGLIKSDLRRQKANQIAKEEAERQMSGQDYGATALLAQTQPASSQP
The settings on record: 100 µM choline, DMEM with 10% FBS, 37 °C, 1 h; labelled compound.

For data set [2], the target named is T2, XeMfsd7c (Xenopus tropicalis, UniProt Q28EC5).
T2 construct: gene flvcr2
T2 sequence (Q28EC5 1-494): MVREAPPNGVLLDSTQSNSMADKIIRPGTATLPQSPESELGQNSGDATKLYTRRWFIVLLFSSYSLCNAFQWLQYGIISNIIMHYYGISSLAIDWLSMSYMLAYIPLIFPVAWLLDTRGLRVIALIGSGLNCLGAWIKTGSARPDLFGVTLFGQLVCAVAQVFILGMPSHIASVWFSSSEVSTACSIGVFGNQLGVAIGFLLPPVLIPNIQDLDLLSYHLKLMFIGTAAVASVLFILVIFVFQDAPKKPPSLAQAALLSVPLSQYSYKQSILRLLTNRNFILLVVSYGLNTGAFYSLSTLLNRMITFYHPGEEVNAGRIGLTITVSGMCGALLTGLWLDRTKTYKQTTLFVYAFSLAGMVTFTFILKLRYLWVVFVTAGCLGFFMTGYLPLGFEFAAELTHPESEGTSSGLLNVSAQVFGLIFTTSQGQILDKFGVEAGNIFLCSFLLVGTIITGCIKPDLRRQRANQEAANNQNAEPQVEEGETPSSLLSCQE
The settings on record: 100 µM choline, DMEM with 10% FBS, 37 °C, 1 h; labelled compound.

The target in data set [3] is T3, DaMfsd7c_a (Danio rerio, UniProt A0A0R4ILB2).
T3 construct: gene flvcr2a
T3 sequence (A0A0R4ILB2 1-470): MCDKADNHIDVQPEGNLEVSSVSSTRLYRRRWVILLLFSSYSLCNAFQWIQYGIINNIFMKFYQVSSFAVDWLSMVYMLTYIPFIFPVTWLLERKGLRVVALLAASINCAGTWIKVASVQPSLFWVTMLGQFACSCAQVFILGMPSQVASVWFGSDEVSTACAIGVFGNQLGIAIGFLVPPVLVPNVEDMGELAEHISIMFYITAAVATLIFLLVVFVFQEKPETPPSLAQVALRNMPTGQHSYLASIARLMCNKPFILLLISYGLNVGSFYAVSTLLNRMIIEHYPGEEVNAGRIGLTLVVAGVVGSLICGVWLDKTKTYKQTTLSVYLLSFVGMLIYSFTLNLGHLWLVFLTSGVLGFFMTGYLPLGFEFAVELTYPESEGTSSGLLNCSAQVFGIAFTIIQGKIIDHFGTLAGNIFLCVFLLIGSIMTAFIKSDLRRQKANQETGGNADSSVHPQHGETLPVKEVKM
The settings on record: 100 µM choline, DMEM with 10% FBS, 37 °C, 1 h; labelled compound.

For data set [4], the target named is T4, DaMfsd7c_b (Danio rerio, UniProt A0A8M9Q308).
T4 construct: gene flvcr2b
T4 sequence (A0A8M9Q308 1-485): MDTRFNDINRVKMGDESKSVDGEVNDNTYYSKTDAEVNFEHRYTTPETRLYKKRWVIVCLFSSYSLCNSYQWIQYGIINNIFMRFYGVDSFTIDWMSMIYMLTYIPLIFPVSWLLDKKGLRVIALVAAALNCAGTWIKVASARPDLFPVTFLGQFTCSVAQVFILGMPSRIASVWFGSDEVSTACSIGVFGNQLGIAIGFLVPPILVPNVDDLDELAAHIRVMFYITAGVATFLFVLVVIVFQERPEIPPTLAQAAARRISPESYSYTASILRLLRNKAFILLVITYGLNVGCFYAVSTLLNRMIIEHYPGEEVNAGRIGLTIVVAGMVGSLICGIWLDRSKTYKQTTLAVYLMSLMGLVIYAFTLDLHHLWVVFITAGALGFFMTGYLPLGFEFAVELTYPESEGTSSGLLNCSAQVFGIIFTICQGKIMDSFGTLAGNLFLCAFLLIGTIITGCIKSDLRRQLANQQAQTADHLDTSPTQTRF
Conditions: 100 µM choline, DMEM with 10% FBS, 37 °C, 1 h; labelled compound.

Substrate in data set [5]: C[N+](C)(C)CCO
Conditions: co-expressed human choline kinase A (hChKA), DMEM with 10% FBS, 37 °C, 60 min, labelled compound. From the text: [3H]choline uptake in transfected HEK293 cells on hMfsd7c (human MFSD7c, FLVCR2) | The kinetics (Km) and Vmax for choline import by human Mfsd7c under this condition

Substrate in data set [6]: C[N+](C)(C)CCO
Conditions: co-expressed human choline kinase A (hChKA), DMEM with 10% FBS, 37 °C, 60 min, labelled compound. From the text:
[3H]choline uptake in transfected HEK293 cells on hMfsd7c (human MFSD7c, FLVCR2) | The Km and Vmax for importing choline by S203Y mutant under this condition were […]
The source holds these as a separate data set.

On to `C[N+](C)(C)CCO` [choline], for which the “[3H]choline uptake in transfected HEK293 cells” value in data set [1], in data set [2], in data set [3] and in data set [4] was “these MFSD7c orthologs also exhibited choline transport activity” throughout.

B1: hMfsd7c (human MFSD7c, FLVCR2) (Homo sapiens) (protein)
chain: MVNEGPNQEESDDTPVPESALQADPSVSVHPSVSVHPSVSINPSVSVHPSSSAHPSALAQPSGLAHPSSSGPEDLSVIKVSRRRWAVVLVFSCYSMCNSFQWIQYGSINNIFMHFYGVSAFAIDWLSMCYMLTYIPLLLPVAWLLEKFGLRTIALTGSALNCLGAWVKLGSLKPHLFPVTVVGQLICSVAQVFILGMPSRIASVWFGANEVSTACSVAVFGNQLGIAIGFLVPPVLVPNIEDRDELAYHISIMFYIIGGVATLLLILVIIVFKEKPKYPPSRAQSLSYALTSPDASYLGSIARLFKNLNFVLLVITYGLNAGAFYALSTLLNRMVIWHYPGEEVNAGRIGLTIVIAGMLGAVISGIWLDRSKTYKETTLVVYIMTLVGMVVYTFTLNLGHLWVVFITAGTMGFFMTGYLPLGFEFAVELTYPESEGISSGLLNISAQVFGIIFTISQGQIIDNYGTKPGNIFLCVFLTLGAALTAFIKADLRRQKANKETLENKLQEEEEESNTSKVPTAVSEDHL
notes: full-length cDNA in pcDNA3.1, transiently expressed in HEK293 cells
As a reminder, the Km is the concentration of substrate that gives half-maximal velocity. With B1, in data set [5], the Km was 100 µM.

B2: hMfsd7c (human MFSD7c, FLVCR2) (Homo sapiens; S203Y) (protein)
chain: B1 chain with S203Y
notes: as for B1
Turning to B2, the Km in data set [6] was 1197 µM.
